The test system of the test is 496974-208-R-J2-PDC complex spheroids, growth % test/control. The test can be described thus: Anticancer human tumor 496974-208-R-J2-PDC patient-derived pancreatic carcinoma cell line growth inhibition [CLK]. To be noted: for viability, T/C: stronger effect = lower value. From the text: A high-throughput screen of multi-cell type tumor spheroids was designed to identify active combinations of […] and targeted small molecules. Complex spheroids include a stromal component modeled by human endothelial cells (HUVEC) and fibroblasts modeled by human mesenchymal stem cells (MSCs). The concentration ranges selected for each drug and investigational agent were based upon clinically achievable concentrations if the clinical Cmax of the agent was known.
Compounds. The drugs and investigational agents: cirtuvivint (SM08502; NSC835563), CC-671 (NSC850746), vemurafenib (NSC761431), tapotoclax (NSC804041), sotorasib (NSC818433), adagrasib (NSC831453), MRTX-1133 (NSC836407), BAY2416964 (NSC825713), copanlisib (NSC816437), inavolisib (NSC800729), abemaciclib (NSC768073), osimertinib (NSC779217), entinostat (NSC756642), eltanexor (KPT-8602, NSC794443), venetoclax (NSC766270), ceralasertib (NSC777638), bortezomib (NSC756655), olaparib (NSC753686), talazoparib (NSC767125), alisertib (NSC759677), peposertib (NSC802822), gemcitabine (NSC613327), 5-fluorouracil (NSC19893), SN-38 (NSC673596), oxaliplatin (NSC266046), paclitaxel (NSC125973), and doxorubicin (NSC123127), were obtained from the National Cancer Institute (NCI) Developmental Therapeutics Program Chemical Repository. The FDA-approved anticancer drug set is available from the Developmental Therapeutics Program at https://dtp.cancer.gov/organization/dscb/obtaining/available plates.htm. […] The stock solutions were prepared in dimethyl sulfoxide (DMSO, Sigma-Aldrich, St. Louis, MO, cat. D2650), except for the platinum complexes which were prepared in saline (Quality Biological, Gaithersburg, MD, cat. 114-055-101), at 800-fold the tested concentration and stored at -70 degrees C prior to their use. All drugs and investigational agents were tested over a range starting from a high concentration at or near the clinical Cmax and decreasing in half-log increments. If the clinical Cmax for an agent had not been determined, the highest concentration tested was 10 microM.
Cell Culture. All cells were maintained in an incubator at 37 degrees C and 5% CO2 with 95% humidity. The PDC lines were cultured according to standard operating procedures established by the NCI PDMR. Briefly, all PDCs were thawed and cultured in Matrigel-coated flasks prepared with a working solution of 1X Ham's F-12 nutrient mix, without supplementation (Invitrogen, Waltham, MA, cat. 11765054), 100 U/mL penicillin-streptomycin (Invitrogen, cat. 15140122), and 2.5% Matrigel (Corning Inc., Corning, NY, cat. 354248) for the first three passages. The 947758-054-R-J2-PDC line was cultured in 6B/Colon 1A media, which includes advanced DMEM/F-12 (Thermo Fisher Scientific, cat. 12634028), 10 mM HEPES (Thermo Fisher Scientific, cat. 15630080), 1X GlutaMAX supplement (Thermo Fisher Scientific, cat. 35050061), 0.1 mg/mL primocin (InvivoGen, cat. ant-pm-2), 10% defined fetal bovine serum, heat inactivated (HyClone Laboratories Inc., cat. SH30070.03HI), 1.25 mM N-Acetyl-L-cysteine (Sigma-Aldrich, cat. A9165), 10 mM nicotinamide (Sigma-Aldrich, cat. N0636), 1X B-27 supplement (Thermo Fisher Scientific, cat. 17504044), 1X N-2 supplement (Thermo Fisher Scientific, cat. 17502048), and 10 microM Y-27632 dihydrochloride (Tocris Bioscience, cat. 1254). The 876862-298-R-J1-PDC was cultured in 6E media, which includes all 6B/Colon 1A media components plus 50% L-WRN conditioned media (ATCC, cat. CRL-3276), 50 ng/mL recombinant human EGF recombinant protein (hEGF; Thermo Fisher Scientific, cat. PHG0311), 10 ng/mL recombinant human fibroblast growth factor 10 (hGFG-10; PeproTech, cat. 100-26), 1 ng/mL recombinant human fibroblast growth factor 2 (hFGF-2; PeproTech, cat. 100-18B), and 1 µM prostaglandin E2 (PGE2; Tocris, cat. 2296). The 227483-062-R1-J1-PDC line was cultured in Panc media, containing all 6E components except hFGF-2, with the addition of 500 nM SB-431542 (Selleckchem, cat. S1067) and 10 nM gastrin (Tocris, cat. 3006). […]

Structures are written as SMILES. Where “and” joins values, the source holds several entries; their conditions need not be identical. Equal entries are not always repeated.
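Further: spheroids exposed to the drugs for 7 days before readout.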
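Wherever viability, T/C is given: 100% = DMSO vehicle control wells.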

Usually viability, T/C stands for the result in the treated group divided by that in the control group, in per cent. As usually defined, the IC50 is the concentration at which inhibition is half-maximal. In the case of `C#Cc1c(F)ccc2cc(O)cc(-c3ncc4c(N5CC6CCC(C5)N6)nc(OCC56CCCN5CC(F)C6)nc4c3F)c12` (configuration not stated), the viability, T/C is, setting by setting: (compound 0.0316 µM) 63.5% and 68.8%; (compound 0.1 µM) 57.4% and 58.6%; (compound 0.316 µM) 48.7% and 48%; (compound 1 µM) 48.6% and 46.5%; (compound 3.16 µM) 44.9% and 50.8%; (compound 10 µM) 38% and 43.1%. The half-maximal inhibitory concentration (IC50) (curve of compound) was 471 nM and 364 nM.

Consider `C=C(F)C(=O)N1CCN(c2nc(OCC3CCCN3C)nc3c2CCN(c2cccc4cccc(Cl)c24)C3)CC1CC#N` (configuration not stated), for which the viability, T/C reads like this: (compound 0.0316 µM) 111% and 105%; (compound 0.1 µM) 108% and 95.4%; (compound 0.316 µM) 97% and 89.5%; (compound 1 µM) 95.8% and 87.1%; (compound 3.16 µM) 93.5% and 98.2%; (compound 10 µM) 2.37% and 3.13%. In addition, the IC50 (curve of compound) was 5480 nM and 5560 nM.

With `C=CC(=O)N1CCN(c2nc(=O)n(-c3c(C)ccnc3C(C)C)c3nc(-c4c(O)cccc4F)c(F)cc23)C(C)C1` (configuration not stated), the viability, T/C (compound 0.0316 µM) was 112% and 102%; the viability, T/C (compound 0.1 µM) was 108% and 87.1%; the viability, T/C (compound 0.316 µM) is 109% and 91.7%; the viability, T/C (compound 1 µM) was 111% and 97.7%; the viability, T/C (compound 3.16 µM) was 107% and 108%; the viability, T/C (compound 10 µM) was 86.8% and 80.7%. The IC50 (curve of compound) is greater than 10000 nM.

As to `C=CC(=O)Nc1cc(Nc2nccc(-c3cn(C)c4ccccc34)n2)c(OC)cc1N(C)CCN(C)C`, the viability, T/C was 102% and 103% (compound 0.000949 µM); 99.3% and 105% (compound 0.003 µM); 86% and 93.1% (compound 0.00949 µM); 85.4% and 94.9% (compound 0.03 µM); 98.1% and 88.5% (compound 0.0949 µM); 70.9% and 70.3% (compound 0.3 µM). Further, the IC50 (curve of compound) is greater than 300 nM.

On to `CC(C)CC(NC(=O)C(Cc1ccccc1)NC(=O)c1cnccn1)B(O)O` (configuration not stated), for which the viability, T/C is, setting by setting: (compound 0.000949 µM) 99.9%; (compound 0.003 µM) 63.8%; (compound 0.00949 µM) 0.44%; (compound 0.03 µM) 0.67%; (compound 0.0949 µM) 0.24%; (compound 0.3 µM) 0.27%. For the same compound, where the note is “curve of compound”, the IC50 was 3.85 nM.

With `CC(CO)NC(=O)c1cc(-c2ccc(Cl)cc2)nn(-c2cnn(C)c2)c1=O` (configuration not stated), the viability, T/C (compound 0.0316 µM) was 106% and 99.5%; the viability, T/C (compound 0.1 µM) was 105% and 97.1%; the viability, T/C (compound 0.316 µM) was 96.2% and 100%; the viability, T/C (compound 1 µM) is 85.5% and 96.2%; the viability, T/C (compound 3.16 µM) was 91.6% and 91.4%; the viability, T/C (compound 10 µM) is 42.6% and 52.9%. Moreover, under “curve of compound”, the IC50 was 8390 nM and > 10000 nM.

On to `CC(Nc1ccc2c(c1)OCCn1cc(N3C(=O)OCC3C(F)F)nc1-2)C(N)=O` (configuration not stated), for which the viability, T/C was 89.2% and 89.5% (compound 0.0316 µM); 65.6% and 63.4% (compound 0.1 µM); 39.2% and 36.6% (compound 0.316 µM); 18.8% and 22.9% (compound 1 µM); 13.1% and 14.9% (compound 3.16 µM); 7.32% and 10.9% (compound 10 µM). For the setting “curve of compound”, the IC50 was 195 nM and 180 nM.

In the case of `CCCS(=O)(=O)Nc1ccc(F)c(C(=O)c2c[nH]c3ncc(-c4ccc(Cl)cc4)cc23)c1F`, the viability, T/C (compound 0.0316 µM) is 108% and 106%; the viability, T/C (compound 0.1 µM) is 92.2% and 91.8%; the viability, T/C (compound 0.316 µM) was 100% and 95.3%; the viability, T/C (compound 1 µM) was 108% and 93.8%; the viability, T/C (compound 3.16 µM) is 87.8% and 93.4%; the viability, T/C (compound 10 µM) is 36.3% and 21.7%. Moreover, where the note is “curve of compound”, the IC50 is 7380 nM and 6350 nM.

`CCN1CCN(Cc2ccc(Nc3ncc(F)c(-c4cc(F)c5nc(C)n(C(C)C)c5c4)n3)nc2)CC1`: the viability, T/C by setting is: (compound 0.00316 µM) 102% and 112%; (compound 0.01 µM) 93.9% and 90.8%; (compound 0.0316 µM) 87.1% and 90.3%; (compound 0.1 µM) 82.4% and 97.8%; (compound 0.316 µM) 90.3% and 92.8%; (compound 1 µM) 96.5% and 103%. Where the note is “curve of compound”, the IC50 is greater than 1000 nM.

Take `CCc1c2c(nc3ccc(O)cc13)-c1cc3c(c(=O)n1C2)COC(=O)[C@]3(O)CC`: the viability, T/C is 67.2% and 61.3% (compound 0.00316 µM); 32.4% and 47.9% (compound 0.01 µM); 25.7% and 35.4% (compound 0.0316 µM); 17.4% and 23.2% (compound 0.1 µM); 9.88% and 12.9% (compound 0.316 µM); 2.2% and 3.2% (compound 1 µM). In addition, the IC50 (curve of compound) is 6.04 nM and 8.48 nM.

For `CN1CCN(c2cc(C(=O)Nc3cc4cc(-c5cnn(C)c5)ccc4cn3)ccn2)CC1`, the viability, T/C (compound 0.0316 µM) was 103% [middle of 12 runs]; the viability, T/C (compound 0.1 µM) was 87.9% [middle of 12 runs]; the viability, T/C (compound 0.316 µM) is 6.96% [middle of 11 runs]; the viability, T/C (compound 1 µM) is 1.74% [middle of 12 runs]; the viability, T/C (compound 3.16 µM) was 0.79% [middle of 12 runs]; the viability, T/C (compound 10 µM) is 0.34% [middle of 8 runs]. Besides, under “compound alone, run of 09/18/2023”, the IC50 is 171 nM [middle of 11 runs].

For the compound `CNC(=O)c1ccc(Nc2nc(OC3CCCC3)c3c(-c4ccc5nc(C)oc5c4)c[nH]c3n2)c(OC)c1`, the viability, T/C was 97.8% [middle of 7 runs] (compound 0.0316 µM); 85.7% [middle of 10 runs] (compound 0.1 µM); 78.1% [middle of 10 runs] (compound 0.316 µM); 70.6% [middle of 10 runs] (compound 1 µM); 62.4% [middle of 10 runs] (compound 3.16 µM); 57.3% [middle of 10 runs] (compound 10 µM). Moreover, the IC50 (compound alone, run of 09/19/2023) was greater than 10000 nM.

As for `COC1C=CCC(C)C(C)S(=O)(=O)NC(=O)c2ccc3c(c2)N(CC2CCC21)CC1(CCCc2cc(Cl)ccc21)CO3` (configuration not stated), the viability, T/C is 99.2% and 100% (compound 0.0316 µM); 95.3% and 65.2% (compound 0.1 µM); 89.4% and 82.5% (compound 0.316 µM); 75.1% and 74.3% (compound 1 µM); 60.6% and 58.6% (compound 3.16 µM); 43.4% and 26% (compound 10 µM). Further, the IC50 (curve of compound) was 6380 nM and 4150 nM.

Regarding `COc1c(OCCCN2CCOCC2)ccc2c3n(c(=NC(=O)c4cnc(N)nc4)nc12)CCN3`, the viability, T/C is, setting by setting: (compound 0.00316 µM) 93.4% and 97.4%; (compound 0.01 µM) 64.2% and 60%; (compound 0.0316 µM) 32.8% and 28.6%; (compound 0.1 µM) 9.98% and 14.7%; (compound 0.316 µM) 7.88% and 8.03%; (compound 1 µM) 3.01% and 3.54%. The concentration for half-maximal inhibition (IC50) (curve of compound) was 16.7 nM and 14.4 nM.

For `Cn1ncnc1[C@H]1c2n[nH]c(=O)c3cc(F)cc(c23)N[C@@H]1c1ccc(F)cc1`, the viability, T/C runs as follows: (compound 0.000316 µM) 109% and 106%; (compound 0.001 µM) 103% and 99.5%; (compound 0.00316 µM) 90.4% and 101%; (compound 0.01 µM) 95.2% and 99.5%; (compound 0.0316 µM) 93.3% and 95.1%; (compound 0.1 µM) 86% and 104%. For the same compound, for the setting “curve of compound”, the IC50 was greater than 100 nM.

In the case of `NC(=O)C(=Cn1cnc(-c2cc(C(F)(F)F)cc(C(F)(F)F)c2)n1)c1cncnc1`, the viability, T/C runs as follows: (compound 0.00949 µM) 97.8% and 78.4%; (compound 0.03 µM) 71.3% and 68.7%; (compound 0.0949 µM) 57.4% and 59.5%; (compound 0.3 µM) 29.5% and 32%; (compound 0.949 µM) 16% and 23.8%; (compound 3 µM) 11.6% and 13.4%. In addition, the IC50 (curve of compound) was 106 nM and 135 nM.

These data come from PubChem BioAssay AID2060615 (Molecular Pharmacology Branch, DTP, NCI, 2025).
